Assay results published in patent publication US20260356819A1, “OXOISOINDOLINYL-SUBSTITUTED […] DERIVATIVE AND USE THEREOF” (GLUETACS THERAPEUTICS (SHANGHAI) CO., LTD., priority 2023, published 2026).

Experiments:
Type in all cases: cell-based
Settings in all cases: compounds at 50 nM and 500 nM
[1] = target: T1, GSPT1 (Homo sapiens, UniProt P15170+Q96SW2); test: Western blot degradation of GSPT1 in hPBMCs (24 h)
T1 construct: The supernatant was aspirated as the extracted total cell protein; endogenous in cells; host or cells: human peripheral blood mononuclear cells (hPBMCs)
T1 sequence (P15170 whole entry): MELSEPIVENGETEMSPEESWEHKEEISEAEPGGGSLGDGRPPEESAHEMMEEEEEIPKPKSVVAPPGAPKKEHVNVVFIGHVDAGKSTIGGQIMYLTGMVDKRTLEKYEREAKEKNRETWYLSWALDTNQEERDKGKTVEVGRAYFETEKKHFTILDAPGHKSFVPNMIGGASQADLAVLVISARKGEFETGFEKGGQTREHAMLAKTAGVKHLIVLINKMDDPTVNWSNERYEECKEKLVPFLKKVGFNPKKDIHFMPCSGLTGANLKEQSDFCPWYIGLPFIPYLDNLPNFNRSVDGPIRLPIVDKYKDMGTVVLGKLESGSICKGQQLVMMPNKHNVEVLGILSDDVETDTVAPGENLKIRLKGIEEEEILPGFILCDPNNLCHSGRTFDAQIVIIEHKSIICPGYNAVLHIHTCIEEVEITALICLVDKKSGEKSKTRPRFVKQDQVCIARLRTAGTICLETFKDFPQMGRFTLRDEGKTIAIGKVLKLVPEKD
T1 sequence (Q96SW2 whole entry): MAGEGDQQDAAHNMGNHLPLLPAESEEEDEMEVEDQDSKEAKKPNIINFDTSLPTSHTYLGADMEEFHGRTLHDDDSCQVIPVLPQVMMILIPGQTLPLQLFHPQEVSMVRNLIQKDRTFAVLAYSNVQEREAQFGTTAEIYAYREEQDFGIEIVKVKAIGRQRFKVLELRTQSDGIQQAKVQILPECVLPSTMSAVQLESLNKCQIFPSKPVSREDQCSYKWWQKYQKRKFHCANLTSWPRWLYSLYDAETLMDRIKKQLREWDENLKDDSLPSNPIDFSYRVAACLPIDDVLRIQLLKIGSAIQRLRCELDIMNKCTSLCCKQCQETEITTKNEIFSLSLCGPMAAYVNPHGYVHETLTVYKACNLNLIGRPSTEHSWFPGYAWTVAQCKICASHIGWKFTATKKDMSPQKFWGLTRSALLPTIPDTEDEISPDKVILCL
T1 sequence (Q16531 whole entry partner): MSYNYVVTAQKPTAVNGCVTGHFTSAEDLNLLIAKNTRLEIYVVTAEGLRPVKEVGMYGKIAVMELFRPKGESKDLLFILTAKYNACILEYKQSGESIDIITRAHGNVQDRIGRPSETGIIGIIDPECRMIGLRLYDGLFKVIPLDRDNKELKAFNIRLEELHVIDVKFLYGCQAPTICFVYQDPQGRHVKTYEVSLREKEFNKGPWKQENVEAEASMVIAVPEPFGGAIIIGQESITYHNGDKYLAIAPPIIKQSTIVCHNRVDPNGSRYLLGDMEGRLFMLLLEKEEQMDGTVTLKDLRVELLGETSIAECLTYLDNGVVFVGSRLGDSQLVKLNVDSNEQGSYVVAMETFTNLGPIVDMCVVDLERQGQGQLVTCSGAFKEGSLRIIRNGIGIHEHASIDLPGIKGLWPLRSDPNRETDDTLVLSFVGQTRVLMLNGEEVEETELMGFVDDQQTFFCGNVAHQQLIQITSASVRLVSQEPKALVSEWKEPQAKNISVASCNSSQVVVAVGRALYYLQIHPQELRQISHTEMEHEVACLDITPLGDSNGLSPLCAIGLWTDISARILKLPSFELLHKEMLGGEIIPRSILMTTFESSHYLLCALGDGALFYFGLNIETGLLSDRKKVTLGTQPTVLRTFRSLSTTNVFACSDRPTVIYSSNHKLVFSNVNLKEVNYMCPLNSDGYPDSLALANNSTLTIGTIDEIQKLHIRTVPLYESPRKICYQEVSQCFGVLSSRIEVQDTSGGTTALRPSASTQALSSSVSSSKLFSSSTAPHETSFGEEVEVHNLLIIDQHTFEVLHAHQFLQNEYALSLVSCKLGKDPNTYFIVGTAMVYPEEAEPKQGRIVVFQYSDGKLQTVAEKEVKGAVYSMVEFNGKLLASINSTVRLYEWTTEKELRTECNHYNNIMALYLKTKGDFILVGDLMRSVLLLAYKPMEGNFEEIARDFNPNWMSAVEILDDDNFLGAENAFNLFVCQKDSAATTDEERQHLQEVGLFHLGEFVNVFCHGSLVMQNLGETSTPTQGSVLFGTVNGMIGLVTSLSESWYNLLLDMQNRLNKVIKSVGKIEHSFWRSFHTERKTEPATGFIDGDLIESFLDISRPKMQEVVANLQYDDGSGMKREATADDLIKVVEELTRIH
Method in brief: (§1)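 Compounds were tested at 50 nM and 500 nM on hPBMCs (1×10^6 cells/mL) for 24 h, alongside DMSO. Proteins were detected by Western blot after denaturation at 95 °C; remaining protein computed from normalised band grayscale.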

[2] = target: T2, WEE1 (Homo sapiens, UniProt P30291+Q96SW2); test: Western blot degradation of WEE1 in hPBMCs (24 h)
T2 construct: The supernatant was aspirated as the extracted total cell protein; endogenous in cells; host or cells: human peripheral blood mononuclear cells (hPBMCs)
T2 sequence (P30291 whole entry): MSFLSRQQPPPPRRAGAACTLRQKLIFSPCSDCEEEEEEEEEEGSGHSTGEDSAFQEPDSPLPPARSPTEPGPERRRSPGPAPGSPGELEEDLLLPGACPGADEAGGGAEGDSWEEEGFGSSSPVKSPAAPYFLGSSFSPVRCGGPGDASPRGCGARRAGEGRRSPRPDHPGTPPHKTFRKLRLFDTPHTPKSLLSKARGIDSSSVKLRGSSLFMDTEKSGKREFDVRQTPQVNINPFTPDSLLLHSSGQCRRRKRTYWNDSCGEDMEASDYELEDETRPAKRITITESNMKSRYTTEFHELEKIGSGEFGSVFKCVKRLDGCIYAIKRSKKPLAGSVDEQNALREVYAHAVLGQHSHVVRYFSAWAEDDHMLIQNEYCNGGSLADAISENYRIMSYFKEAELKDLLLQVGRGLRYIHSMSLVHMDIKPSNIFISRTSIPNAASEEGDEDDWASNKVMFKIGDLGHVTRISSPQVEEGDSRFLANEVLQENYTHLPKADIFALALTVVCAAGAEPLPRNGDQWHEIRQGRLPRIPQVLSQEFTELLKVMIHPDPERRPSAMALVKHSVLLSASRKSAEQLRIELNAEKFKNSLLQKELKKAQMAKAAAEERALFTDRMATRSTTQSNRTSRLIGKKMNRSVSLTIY
T2 sequence (Q96SW2 whole entry): as the sequence (Q96SW2 whole entry) above
T2 sequence (Q16531 whole entry partner): as the sequence (Q16531 whole entry partner) above
Method in brief: as §1

[3] = target: T3, IKZF3 (Homo sapiens, UniProt Q96SW2+Q9UKT9); test: Western blot degradation of IKZF3 in hPBMCs (24 h)
T3 construct: The supernatant was aspirated as the extracted total cell protein; endogenous in cells; host or cells: human peripheral blood mononuclear cells (hPBMCs)
Method in brief: as §1

[4] = target: T4, IKZF2 (Homo sapiens, UniProt Q96SW2+Q9UKS7); test: Western blot degradation of IKZF2 in hPBMCs (24 h)
T4 construct: The supernatant was aspirated as the extracted total cell protein; endogenous in cells; host or cells: human peripheral blood mononuclear cells (hPBMCs)
T4 sequence (Q9UKS7 whole entry): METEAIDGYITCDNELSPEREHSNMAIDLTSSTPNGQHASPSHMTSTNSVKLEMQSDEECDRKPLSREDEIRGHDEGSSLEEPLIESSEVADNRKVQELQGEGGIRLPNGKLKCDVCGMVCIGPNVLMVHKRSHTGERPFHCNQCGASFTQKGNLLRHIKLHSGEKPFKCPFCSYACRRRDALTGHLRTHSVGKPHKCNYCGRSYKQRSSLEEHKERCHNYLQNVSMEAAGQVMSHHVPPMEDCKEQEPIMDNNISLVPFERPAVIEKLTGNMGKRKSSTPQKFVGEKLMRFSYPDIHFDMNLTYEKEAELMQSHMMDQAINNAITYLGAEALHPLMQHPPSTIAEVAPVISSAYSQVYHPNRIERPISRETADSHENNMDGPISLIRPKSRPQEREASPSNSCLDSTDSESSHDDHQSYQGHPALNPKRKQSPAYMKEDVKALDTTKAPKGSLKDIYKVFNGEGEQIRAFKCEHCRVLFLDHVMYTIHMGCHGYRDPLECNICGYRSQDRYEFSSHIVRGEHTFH
T4 sequence (Q96SW2 whole entry): as the sequence (Q96SW2 whole entry) above
T4 sequence (Q16531 whole entry partner): as the sequence (Q16531 whole entry partner) above
Method in brief: as §1

[5] = target: T5, IKZF1 (Homo sapiens, UniProt Q13422+Q96SW2); test: Western blot degradation of IKZF1 in hPBMCs (24 h)
T5 construct: The supernatant was aspirated as the extracted total cell protein; endogenous in cells; host or cells: human peripheral blood mononuclear cells (hPBMCs)
T5 sequence (Q13422 whole entry): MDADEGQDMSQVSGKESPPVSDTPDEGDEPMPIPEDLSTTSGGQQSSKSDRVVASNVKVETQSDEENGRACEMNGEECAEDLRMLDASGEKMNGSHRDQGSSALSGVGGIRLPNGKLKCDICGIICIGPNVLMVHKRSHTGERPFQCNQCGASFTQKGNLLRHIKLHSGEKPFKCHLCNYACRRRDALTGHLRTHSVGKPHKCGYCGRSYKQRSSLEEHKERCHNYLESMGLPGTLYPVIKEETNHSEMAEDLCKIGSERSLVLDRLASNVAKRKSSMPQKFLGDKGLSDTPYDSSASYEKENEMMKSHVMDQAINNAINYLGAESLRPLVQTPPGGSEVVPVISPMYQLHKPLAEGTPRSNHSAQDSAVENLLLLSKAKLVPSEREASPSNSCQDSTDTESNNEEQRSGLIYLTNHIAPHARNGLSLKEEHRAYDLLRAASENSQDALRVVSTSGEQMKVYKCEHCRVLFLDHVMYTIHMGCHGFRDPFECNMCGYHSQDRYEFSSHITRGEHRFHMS
T5 sequence (Q96SW2 whole entry): as the sequence (Q96SW2 whole entry) above
T5 sequence (Q16531 whole entry partner): as the sequence (Q16531 whole entry partner) above
Method in brief: as §1

[6] = target: T6, CK1α (Homo sapiens, UniProt P48729+Q96SW2); test: Western blot degradation of CK1α in hPBMCs (24 h)
T6 construct: The supernatant was aspirated as the extracted total cell protein; endogenous in cells; host or cells: human peripheral blood mononuclear cells (hPBMCs)
T6 sequence (P48729 whole entry): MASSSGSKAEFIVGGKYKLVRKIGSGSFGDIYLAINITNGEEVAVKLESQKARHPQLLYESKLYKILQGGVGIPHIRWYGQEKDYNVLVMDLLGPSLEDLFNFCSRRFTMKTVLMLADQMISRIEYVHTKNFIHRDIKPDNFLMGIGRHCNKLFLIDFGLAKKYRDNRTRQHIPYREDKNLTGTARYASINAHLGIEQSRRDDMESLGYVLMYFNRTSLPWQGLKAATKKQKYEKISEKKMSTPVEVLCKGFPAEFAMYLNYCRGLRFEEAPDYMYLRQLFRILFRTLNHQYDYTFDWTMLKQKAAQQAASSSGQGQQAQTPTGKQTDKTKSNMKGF
T6 sequence (Q96SW2 whole entry): as the sequence (Q96SW2 whole entry) above
T6 sequence (Q16531 whole entry partner): as the sequence (Q16531 whole entry partner) above
Method in brief: as §1

Structure (SMILES): Cc1nc(C2CCN(Cc3ccc4c(c3)CN(N3CCC(=O)NC3=O)C4=O)CC2)c2ccsc2n1 [GT-08088, 1-(5-((4-(2-methylthieno[2,3-d]pyrimidin-4-yl)piperidin-1-yl)methyl)-1-oxoisoindolin-2-yl)dihydropyrimidine-2,4(1H,3H)-dione]
- GSPT1 substrate protein remaining % [1]: A (0% ≤ substrate protein remaining % ≤80%)
- WEE1 substrate protein remaining % [2]: A (0% ≤ substrate protein remaining % ≤80%)
- IKZF3 substrate protein remaining % [3]: B (80%< substrate protein remaining % ≤100%)
- IKZF2 substrate protein remaining % [4]: B (80%< substrate protein remaining % ≤100%)
- IKZF1 substrate protein remaining % [5]: B (80%< substrate protein remaining % ≤100%)
- CK1α substrate protein remaining % [6]: A (0% ≤ substrate protein remaining % ≤80%)

Structure (SMILES): Cc1nc(C2CCN(Cc3ccc4c(c3)CN(N3CCC(=O)NC3=O)C4=O)CC2)c2c3c(sc2n1)CCCC3 [GT-08089, 1-(5-((4-(2-methyl-5,6,7,8-tetrahydrobenzo[4,5]thieno[2,3-d]pyrimidin-4-yl)piperidin-1-yl)methyl)-1-oxoisoindolin-2-yl)dihydropyrimidine-2,4(1H,3H)-dione]
- GSPT1 substrate protein remaining % [1]: A (0% ≤ substrate protein remaining % ≤80%)
- WEE1 substrate protein remaining % [2]: A (0% ≤ substrate protein remaining % ≤80%)
- IKZF3 substrate protein remaining % [3]: B (80%< substrate protein remaining % ≤100%)
- IKZF2 substrate protein remaining % [4]: B (80%< substrate protein remaining % ≤100%)
- IKZF1 substrate protein remaining % [5]: B (80%< substrate protein remaining % ≤100%)
- CK1α substrate protein remaining % [6]: A (0% ≤ substrate protein remaining % ≤80%)

Structure (SMILES): O=C1CCN(N2C(=O)c3ccc(CN4CCN(c5ncnc6sccc56)CC4)cc3C2=O)C(=O)N1 [GT-08090, 2-(2,4-dioxotetrahydropyrimidin-1(2H)-yl)-5-((4-(thieno[2,3-d]pyrimidin-4-yl)piperazin-1-yl)methyl)isoindoline-1,3-dione]
- GSPT1 substrate protein remaining % [1]: A (0% ≤ substrate protein remaining % ≤80%)
- WEE1 substrate protein remaining % [2]: A (0% ≤ substrate protein remaining % ≤80%)
- IKZF3 substrate protein remaining % [3]: B (80%< substrate protein remaining % ≤100%)
- IKZF2 substrate protein remaining % [4]: B (80%< substrate protein remaining % ≤100%)
- IKZF1 substrate protein remaining % [5]: B (80%< substrate protein remaining % ≤100%)
- CK1α substrate protein remaining % [6]: A (0% ≤ substrate protein remaining % ≤80%)

Structure (SMILES): Cc1csc2ncnc(N3CCN(Cc4ccc5c(c4)C(=O)N(N4CCC(=O)NC4=O)C5=O)CC3)c12 [GT-08091, 2-(2,4-dioxotetrahydropyrimidin-1(2H)-yl)-5-((4-(5-methylthieno[2,3-d]pyrimidin-4-yl)piperazin-1-yl)methyl)isoindoline-1,3-dione]
- GSPT1 substrate protein remaining % [1]: A (0% ≤ substrate protein remaining % ≤80%)
- WEE1 substrate protein remaining % [2]: A (0% ≤ substrate protein remaining % ≤80%)
- IKZF3 substrate protein remaining % [3]: B (80%< substrate protein remaining % ≤100%)
- IKZF2 substrate protein remaining % [4]: B (80%< substrate protein remaining % ≤100%)
- IKZF1 substrate protein remaining % [5]: B (80%< substrate protein remaining % ≤100%)
- CK1α substrate protein remaining % [6]: A (0% ≤ substrate protein remaining % ≤80%)

Structure (SMILES): Cc1cc2c(N3CCN(Cc4ccc5c(c4)C(=O)N(N4CCC(=O)NC4=O)C5=O)CC3)ncnc2s1 [GT-08092, 2-(2,4-dioxotetrahydropyrimidin-1(2H)-yl)-5-((4-(6-methylthieno[2,3-d]pyrimidin-4-yl)piperazin-1-yl)methyl)isoindoline-1,3-dione]
- GSPT1 substrate protein remaining % [1]: A (0% ≤ substrate protein remaining % ≤80%)
- WEE1 substrate protein remaining % [2]: A (0% ≤ substrate protein remaining % ≤80%)
- IKZF3 substrate protein remaining % [3]: B (80%< substrate protein remaining % ≤100%)
- IKZF2 substrate protein remaining % [4]: B (80%< substrate protein remaining % ≤100%)
- IKZF1 substrate protein remaining % [5]: B (80%< substrate protein remaining % ≤100%)
- CK1α substrate protein remaining % [6]: A (0% ≤ substrate protein remaining % ≤80%)

Structure (SMILES): CC(C)c1cc2c(N3CCN(Cc4ccc5c(c4)C(=O)N(N4CCC(=O)NC4=O)C5=O)CC3)ncnc2s1 [GT-08093, 2-(2,4-dioxotetrahydropyrimidin-1(2H)-yl)-5-((4-(6-isopropylthieno[2,3-d]pyrimidin-4-yl)piperazin-1-yl)methyl)isoindoline-1,3-dione]
- GSPT1 substrate protein remaining % [1]: A (0% ≤ substrate protein remaining % ≤80%)
- WEE1 substrate protein remaining % [2]: A (0% ≤ substrate protein remaining % ≤80%)
- IKZF3 substrate protein remaining % [3]: B (80%< substrate protein remaining % ≤100%)
- IKZF2 substrate protein remaining % [4]: B (80%< substrate protein remaining % ≤100%)
- IKZF1 substrate protein remaining % [5]: B (80%< substrate protein remaining % ≤100%)
- CK1α substrate protein remaining % [6]: A (0% ≤ substrate protein remaining % ≤80%)

Structure (SMILES): Cc1sc2ncnc(N3CCN(Cc4ccc5c(c4)C(=O)N(N4CCC(=O)NC4=O)C5=O)CC3)c2c1C [GT-08094, 5-((4-(5,6-dimethylthieno[2,3-d]pyrimidin-4-yl)piperazin-1-yl)methyl)-2-(2,4-dioxotetrahydropyrimidin-1(2H)-yl)isoindoline-1,3-dione]
- GSPT1 substrate protein remaining % [1]: A (0% ≤ substrate protein remaining % ≤80%)
- WEE1 substrate protein remaining % [2]: A (0% ≤ substrate protein remaining % ≤80%)
- IKZF3 substrate protein remaining % [3]: B (80%< substrate protein remaining % ≤100%)
- IKZF2 substrate protein remaining % [4]: B (80%< substrate protein remaining % ≤100%)
- IKZF1 substrate protein remaining % [5]: B (80%< substrate protein remaining % ≤100%)
- CK1α substrate protein remaining % [6]: A (0% ≤ substrate protein remaining % ≤80%)

Structure (SMILES): Cc1sc2ncnc(N3CCCN(Cc4ccc5c(c4)C(=O)N(N4CCC(=O)NC4=O)C5=O)CC3)c2c1C [GT-08095, 5-((4-(5,6-dimethylthieno[2,3-d]pyrimidin-4-yl)-1,4-diazepan-1-yl)methyl)-2-(2,4-dioxotetrahydropyrimidin-1(2H)-yl)isoindoline-1,3-dione]
- GSPT1 substrate protein remaining % [1]: B (80%< substrate protein remaining % ≤100%)
- WEE1 substrate protein remaining % [2]: A (0% ≤ substrate protein remaining % ≤80%)
- IKZF3 substrate protein remaining % [3]: B (80%< substrate protein remaining % ≤100%)
- IKZF2 substrate protein remaining % [4]: B (80%< substrate protein remaining % ≤100%)
- IKZF1 substrate protein remaining % [5]: B (80%< substrate protein remaining % ≤100%)
- CK1α substrate protein remaining % [6]: A (0% ≤ substrate protein remaining % ≤80%)

Structure (SMILES): O=C1CCN(N2C(=O)c3ccc(CN4CCN(c5ncnc6sc(Br)cc56)CC4)cc3C2=O)C(=O)N1 [GT-08096, 5-((4-(6-bromothieno[2,3-d]pyrimidin-4-yl)piperazin-1-yl)methyl)-2-(2,4-dioxotetrahydropyrimidin-1(2H)-yl)isoindoline-1,3-dione]
- GSPT1 substrate protein remaining % [1]: A (0% ≤ substrate protein remaining % ≤80%)
- WEE1 substrate protein remaining % [2]: A (0% ≤ substrate protein remaining % ≤80%)
- IKZF3 substrate protein remaining % [3]: B (80%< substrate protein remaining % ≤100%)
- IKZF2 substrate protein remaining % [4]: B (80%< substrate protein remaining % ≤100%)
- IKZF1 substrate protein remaining % [5]: B (80%< substrate protein remaining % ≤100%)
- CK1α substrate protein remaining % [6]: A (0% ≤ substrate protein remaining % ≤80%)

Structure (SMILES): O=C1CCN(N2C(=O)c3ccc(CN4CCN(c5ncnc6sc(-c7ccccc7)cc56)CC4)cc3C2=O)C(=O)N1 [GT-08097, 2-(2,4-dioxotetrahydropyrimidin-1(2H)-yl)-5-((4-(6-phenylthieno[2,3-d]pyrimidin-4-yl)piperazin-1-yl)methyl)isoindoline-1,3-dione]
- GSPT1 substrate protein remaining % [1]: A (0% ≤ substrate protein remaining % ≤80%)
- WEE1 substrate protein remaining % [2]: A (0% ≤ substrate protein remaining % ≤80%)
- IKZF3 substrate protein remaining % [3]: B (80%< substrate protein remaining % ≤100%)
- IKZF2 substrate protein remaining % [4]: B (80%< substrate protein remaining % ≤100%)
- IKZF1 substrate protein remaining % [5]: B (80%< substrate protein remaining % ≤100%)
- CK1α substrate protein remaining % [6]: A (0% ≤ substrate protein remaining % ≤80%)

Structure (SMILES): O=C1CCN(N2C(=O)c3ccc(CN4CCN(c5ncnc6scc(-c7ccccc7)c56)CC4)cc3C2=O)C(=O)N1 [GT-08098, 2-(2,4-dioxotetrahydropyrimidin-1(2H)-yl)-5-((4-(5-phenylthieno[2,3-d]pyrimidin-4-yl)piperazin-1-yl)methyl)isoindoline-1,3-dione]
- GSPT1 substrate protein remaining % [1]: A (0% ≤ substrate protein remaining % ≤80%)
- WEE1 substrate protein remaining % [2]: B (80%< substrate protein remaining % ≤100%)
- IKZF3 substrate protein remaining % [3]: B (80%< substrate protein remaining % ≤100%)
- IKZF2 substrate protein remaining % [4]: B (80%< substrate protein remaining % ≤100%)
- IKZF1 substrate protein remaining % [5]: B (80%< substrate protein remaining % ≤100%)
- CK1α substrate protein remaining % [6]: B (80%< substrate protein remaining % ≤100%)

Structure (SMILES): Cc1nc(N2CCN(Cc3ccc4c(c3)C(=O)N(N3CCC(=O)NC3=O)C4=O)CC2)c2c(-c3ccccc3)csc2n1 [GT-08099, 2-(2,4-dioxotetrahydropyrimidin-1(2H)-yl)-5-((4-(2-methyl-5-phenylthieno[2,3-d]pyrimidin-4-yl)piperazin-1-yl)methyl)isoindoline-1,3-dione]
- GSPT1 substrate protein remaining % [1]: A (0% ≤ substrate protein remaining % ≤80%)
- WEE1 substrate protein remaining % [2]: B (80%< substrate protein remaining % ≤100%)
- IKZF3 substrate protein remaining % [3]: B (80%< substrate protein remaining % ≤100%)
- IKZF2 substrate protein remaining % [4]: B (80%< substrate protein remaining % ≤100%)
- IKZF1 substrate protein remaining % [5]: B (80%< substrate protein remaining % ≤100%)
- CK1α substrate protein remaining % [6]: B (80%< substrate protein remaining % ≤100%)
